The target in series [1] is MuPEP1 (S. mutans PEP) (Streptococcus mutans, UniProt Q8DW05). The series can be described thus: MuPEP1 peptidase inhibition assay with fluorogenic substrate tCComC-AFC. It counts as biochemical. Here is the method: This region of ComC is necessary and sufficient for the interaction with PEP[17]. […] Thus, this synthetic peptide was used as a functionally relevant substrate. Assays were performed in black flat-bottom 384-well plates (Greinar, 784900) under ambient conditions. All compounds dissolved in DMSO were predispensed on the plate (100 nL/well) with the final concentration of 20 μM, and then aliquots of 5 μL of 0.5 μM MuPEP1 (final concentration) in 50 mM Tris-HCl, 150 mM ammonium sulfate, and 0.02% Triton X-100 were dispensed to each well by using a Multidrop Combi dispenser (Thermo Fisher Scientific, Vantaa, Finland). […] These reaction mixtures contained DMSO at a 3% final concentration. Each 384-well plate contained 16 negative control wells (lacking MuPEP1) and 16 positive control wells (100 nL of DMSO replacing 100 nL of compound in DMSO). After 3-h incubation, the fluorescence intensity of the released AFC was measured by using a microplate reader, PHERAstar (BMG Labtech, Offenburg, Germany), with excitation at 380 nm and emission at 490 nm.
Fifteen microliters of 3.3 mM of phosphoric acid was added to 8 μL of the reaction mixtures from the screening. […] The fluorescence was detected by using excitation at 360 nm and emission at 470 nm.
Dose-dependent inhibitory activities of compounds against MuPEP1 were examined in quadruplicate. […]

Series [2] relates to S. mutans biofilm formation. Nature of the series: Biofilm formation assay (crystal violet staining; tilted tube culture). It counts as cell-based, S. mutans strain UA159. Here is the method: After 18 h of standing incubation at 37 °C in 5% CO2 under anaerobic condition in an AnaeroPack system (Mitsubishi Gas Chemical, Tokyo, Japan), the cultured medium was removed, and adherent bacteria were stained with 200 μL of 0.005% crystal violet for 30 min. […] The dye was extracted into 200 μL of 60% ethanol, and the biofilm mass was estimated by using a microplate reader (Bio-Rad, Model 680XR) (Bio-Rad, Hercules, CA) to measure the absorbance at 595 nm. […]

The test system of series [3] is S. mutans. Nature of the series: Bacterial growth / viable cell count. The conditions noted are these: 25 μM compound, tube culture. It counts as cell-based, S. mutans strain UA159. Here is the method:
[…] After 18 h of standing incubation at 37 °C in 5% CO2 under anaerobic condition in an AnaeroPack system (Mitsubishi Gas Chemical, Tokyo, Japan), the cultured medium was removed, and adherent bacteria were stained with 200 μL of 0.005% crystal violet for 30 min. The wells were washed twice with 300 μL of distilled water and then air dried. The dye was extracted into 200 μL of 60% ethanol, and the biofilm mass was estimated by using a microplate reader (Bio-Rad, Model 680XR) (Bio-Rad, Hercules, CA) to measure the absorbance at 595 nm. The bacterial growth was determined by measuring the turbidity (absorbance at 595 nm) of parallel wells.
For the count of viable cells shown in Fig. 2B, part of the culture was serially diluted and spread onto the BHI plate, and the plates were incubated overnight at 37 °C in 5% CO2 under anaerobic condition.

Series [4] addresses S. oralis PEP (Streptococcus oralis, UniProt A0A1X1IJV1). The series can be described thus: S. oralis PEP peptidase assay with tCComC-AFC. Here is the method:
(§1) The PEP activity was assayed in a 110-μL reaction mixture containing 50 mM Tris-HCl, 150 mM ammonium sulfate, 0.02% Triton X-100, and various concentrations of the substrate. The reaction was started by adding the PEP solution to a final concentration of 0.25–2.0 μM. The reaction was performed at 25 °C, 50 μL of the reaction mixture was transferred to a white 96-well microtiter plate (Thermo Scientific 236105), and the fluorescence intensity was immediately measured by using a Promega GloMax®-Multi plus Detection System (Promega, Madison, WI) with excitation at 405 nm and emission at 495–505 nm.
Supplementary Figure S1: v/[E] versus substrate concentration plots for the PEP
(§2) The data were fitted with a saturation curve with the
Tris-HCl, 150 mM ammonium sulfate, and Triton X-100, pH 7.0, at 25 °C. The
concentrations of Triton X-100 were 0.01% for MuPEP1 and 0.02% for S.
pneumoniae PEP. […]

For series [5], the target named is peptidase domain of S. pneumoniae BlpA (Streptococcus pneumoniae, UniProt G3ECC8). Nature of the series: BlpA peptidase domain assay with tCComC-AFC. The method, then: as §1
(§3) Supplementary Figure S1: v/[E] versus substrate concentration plots for the PEP […]
as §2
(§4) Tris-HCl, 150 mM ammonium sulfate, and Triton X-100, pH 7.0, at 25 °C. The concentrations of Triton X-100 were 0.01% for MuPEP1 and 0.02% for S. pneumoniae PEP. The concentrations of PEP or the peptidase domain of BlpA were […]
(1 picture or pasted object on this page, not shown here) […]
(§5) domain of S. pneumoniae BlpA with Compound 1. […]
(§6) was digested with 0.5 μM PEP or the peptidase domain of BlpA in the presence of […]

Series [6] has as its target MuPEP1 (Streptococcus mutans, UniProt Q8DW05). The series can be described thus: Kinetic analysis of MuPEP1 peptidase activity. Here is the method: as §1, §3, §2, §4
(1 picture or pasted object on this page, not shown here)

Series [7] concerns the target T1, S. pneumoniae PEP (Streptococcus pneumoniae serotype 4, UniProt Q03727).
T1 construct: His-tag; made in house; host or cells: E. coli BL21 (DE3) pLysS
Nature of the series: S. pneumoniae PEP peptidase assay with tCComC-AFC. It counts as biochemical. The method, then:
as §1, with “nm. […]” for “nm.”
as §4, §5, §6

For series [8], the system named is S. mutans competence development. The series can be described thus: Transformation assay (competence development). The following applies: 10 μM compound. The series is classed as cell-based. Here is the method: Four microliters of the overnight culture of S. mutans in BHI medium was inoculated to 0.4 mL of CDM in the absence or presence of 10 µM Compound 1. After 7.5 h incubation at 37 °C in 5% CO2 under anaerobic condition in the AnaeroPack system, 1 μg of plasmid pSET2 was added to the culture. After additional 3-h growth, the cultures were chilled on ice, and serial dilutions of the cultures were plated onto BHI agar plates (for enumeration of total CFU) and onto BHI agar plates containing 1 mg/mL spectinomycin (for enumeration of transformants). Transformation efficiency was determined after 24–48 h incubation at 37 °C in 5% CO2 under anaerobic condition.

The test system of series [9] is nlmA and nlmC gene expression of S. mutans. The series can be described thus: Real-time quantitative RT-PCR of bacteriocin genes. The series is classed as cell-based. The following applies: 25 μM compound. The method, then:
Six microliters of the overnight culture of S. mutans in BHI medium was inoculated into 0.4 mL of CDM. After 17 h of incubation at 37 °C in 5% CO2 under anaerobic condition in an AnaeroPack system, cells were collected by centrifugation and treated with labiase (Cosmo Bio, Tokyo, Japan), and total RNA was extracted and purified by using a PureLink™ RNA Mini kit (Ambion, Austin, TX). Purified RNA was reverse transcribed to cDNA by using SuperScript® VILO™ cDNA Synthesis kit. Quantitative real-time PCR was performed by using a Power SYBR® Green PCR Master Mix (Applied Biosystems, Foster City, CA) on a StepOnePlus Real–Time PCR system (Applied Biosystems). The gene expression levels were calculated by using the ΔΔ threshold cycle (ΔΔC T) method. The 16S rRNA gene of S. mutans was used as the housekeeping reference. The oligonucleotides to amplify each gene were as follows: 5′-[…]-3′ and 5′-[…]-3′ for 16S rRNA, 5′-[…]-3′ and 5′-[…]-3′ for nlmA (SMU. 150), and 5′-[…]-3′ and 5′-[…]-3′ for nlmC (SMU. 1914C). All experiments using commercially available kits were performed according to the manufacturer’s instructions.

Series [10] has as its system CC(C)C[C@H](NC(=O)[C@H](CCC(=O)O)NC(=O)[C@H](CCCCN)NC(=O)[C@H](CCC(=O)O)NC(=O)[C@H](CC(N)=O)NC(=O)[C@H](CC(C)C)NC(=O)[C@@H](NC(=O)[C@@H]1CCCN1C(=O)[C@H](Cc1ccccc1)NC(=O)[C@H](CCC(N)=O)NC(=O)[C@H](C)N)C(C)C)C(=O)N[C@@H](CCCCN)C(=O)N[C@@H](CCC(=O)O)C(=O)N[C@H](C(=O)N[C@@H](CC(C)C)C(=O)NCC(=O)NCC(=O)Nc1ccc2c(C(F)(F)F)cc(=O)oc2c1)C(C)C. The series can be described thus: purified protein, by the assay type.

Where [11] appears, read: other: MuPEP1, non-competitive inhibition model fit, Fig. 2E, pH 7.0, 25.0 °C.
Where [12] appears, read: other: saturation curve, pH 7.0, 25 °C, Fig. S1.

Consider four compounds from publication PMC5481443, “High-throughput Screening of Small Molecule Inhibitors of the Streptococcus Quorum-sensing Signal Pathway” (Scientific Reports, 2017).

Sequence of MuPEP1 (Q8DW05 entry or part of it): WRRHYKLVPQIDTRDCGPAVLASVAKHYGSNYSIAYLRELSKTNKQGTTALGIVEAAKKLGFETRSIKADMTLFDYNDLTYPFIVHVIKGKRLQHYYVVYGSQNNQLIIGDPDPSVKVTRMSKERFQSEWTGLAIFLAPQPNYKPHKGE
Sequence of S. oralis PEP (A0A1X1IJV1 entry or part of it): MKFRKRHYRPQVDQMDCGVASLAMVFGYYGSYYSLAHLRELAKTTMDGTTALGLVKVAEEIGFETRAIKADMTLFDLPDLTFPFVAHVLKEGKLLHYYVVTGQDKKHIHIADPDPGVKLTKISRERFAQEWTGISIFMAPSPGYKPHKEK
Sequence of MuPEP1 (S. mutans PEP) (Q8DW05 entry or part of it): as the sequence (Q8DW05 entry or part of it) above
Sequence of peptidase domain of S. pneumoniae BlpA (G3ECC8 entry or part of it): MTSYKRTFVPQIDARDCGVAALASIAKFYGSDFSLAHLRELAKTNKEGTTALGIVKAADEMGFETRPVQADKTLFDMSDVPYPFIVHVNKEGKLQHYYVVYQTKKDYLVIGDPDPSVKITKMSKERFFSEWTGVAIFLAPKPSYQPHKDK
T1 sequence (Q03727 11-138): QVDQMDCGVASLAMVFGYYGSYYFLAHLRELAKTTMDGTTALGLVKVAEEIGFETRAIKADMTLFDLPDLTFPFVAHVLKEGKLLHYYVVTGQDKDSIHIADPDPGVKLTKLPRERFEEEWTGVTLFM

For `CCCNC(=O)OCC1CC2CCN1CC2C#Cc1ccccc1` (centres unmarked) [Compound 1], the IC50 was 38 µM in series [1], 25 µM in series [4], 16 µM in [5] and 29 µM in series [7]. The “Biofilm in standing culture in tilted round-bottom culture tubes” value in series [2] (25 μM compound, overnight standing culture) is “easily detached and dispersed after gentle swirling”. In series [2] (Streptococcus mutans, S. mutans, crystal violet staining, 96-well plate, 18 h, read-out: EC50 of suppression of biofilm formation), the EC50 is 5 µM. For the same compound, in series [3], the “Antimicrobial activity against S. mutans” value is reported as “did not show antimicrobial activity”. The compound further returned a Ki in series [6] of 38 µM. In [6] (Vmax decreased, Km unaffected), the Inhibition mechanism entry was “non-competitively inhibited”. Also, the “Transformation efficiency relative to absence of compound” value in series [8] is given as 35%. The “Relative gene expression level of nlmA” value in series [9] amounted to 18%. The “Relative gene expression level of nlmC” value in [9] is reported as 23%.
In the case of MuPEP1 (Streptococcus mutans UA159), in series [10] (setting [11]), the Michaelis constant (Km) came to 43 µM and the kcat was 0.00333 s⁻¹. For the same compound, in series [10] (setting [12]), the Michaelis-Menten constant (Km) is 46 µM and the kcat worked out at 0.00317 s⁻¹.
As for “S. oralis PEP (Streptococcus oralis subsp. oralis)”, in [10] (setting [12]), the Michaelis constant (Km) turned out to be 8.2 µM and the kcat is 0.00123 s⁻¹.
Turning to “peptidase domain of S. pneumoniae BlpA (Streptococcus pneumoniae)”, in series [10] (setting [12]), the Km was 18 µM and the kcat turned out to be 0.011 s⁻¹.

By IC50 is commonly meant the concentration needed to halve the response being measured. The low end stands for greater potency in that assay, the high end for weaker potency in that assay. The EC50 is the concentration at which the effect is half-maximal. The term Ki denotes a measure of affinity in units of concentration, obtained from inhibition or displacement. The low end stands for higher affinity, the high end for lower affinity. The Km is the substrate concentration at which the rate is half of its maximum. For orientation: kcat means the number of substrate molecules converted per active site and unit of time at saturation.
